Measured values reported in PMC9667588, “Synthesis and bioactivities evaluation of quinazolin-4(3H)-one derivatives as α-glucosidase inhibitors” (BMC Chemistry, 2022).
Entries after “also recorded” stand apart in the source; their conditions may differ.

molecular target: T1, α-glucosidase (Saccharomyces cerevisiae, UniProt P53341); experiment: α-glucosidase inhibition assay; type: biochemical; details: not given
T1 sequence (P53341 whole entry): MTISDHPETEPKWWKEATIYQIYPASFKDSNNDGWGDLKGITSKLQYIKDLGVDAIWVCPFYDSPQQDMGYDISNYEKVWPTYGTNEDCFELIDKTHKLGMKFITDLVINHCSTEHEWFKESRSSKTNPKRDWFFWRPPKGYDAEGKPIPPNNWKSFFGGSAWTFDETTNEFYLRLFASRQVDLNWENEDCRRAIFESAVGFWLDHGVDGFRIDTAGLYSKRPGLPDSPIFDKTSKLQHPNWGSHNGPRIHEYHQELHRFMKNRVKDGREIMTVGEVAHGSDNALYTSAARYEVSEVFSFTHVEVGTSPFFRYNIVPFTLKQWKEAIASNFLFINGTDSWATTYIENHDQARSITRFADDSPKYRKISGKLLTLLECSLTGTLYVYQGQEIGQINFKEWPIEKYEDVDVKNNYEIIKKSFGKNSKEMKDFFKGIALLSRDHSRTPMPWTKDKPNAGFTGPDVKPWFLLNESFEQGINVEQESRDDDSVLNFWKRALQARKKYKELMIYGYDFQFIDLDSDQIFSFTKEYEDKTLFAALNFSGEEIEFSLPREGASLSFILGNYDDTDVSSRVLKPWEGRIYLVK

Row | activity against α-glucosidase under the tested concentration | SMILES
1 | did not show any activity | COc1ccc(NC(=O)COc2ccc(-c3nc4ccccc4c(=O)[nH]3)cc2OC)cc1 [Compound 7l, 2-(2-methoxy-4-(4-oxo-3,4-dihydroquinazolin-2-yl)phenoxy)-N-(4-methoxyphenyl)acetamide]
2 | did not show any activity | COc1cc(-c2nc3ccccc3c(=O)[nH]2)ccc1OCC(=O)Nc1ccc(O)cc1 [Compound 7m, N-(4-hydroxyphenyl)-2-(2-methoxy-4-(4-oxo-3,4-dihydroquinazolin-2-yl)phenoxy)acetamide]
3 | did not show any activity | COc1cc(-c2nc3ccccc3c(=O)[nH]2)ccc1OCC(=O)Nc1ccc([N+](=O)[O-])cc1 [Compound 7n, 2-(2-methoxy-4-(4-oxo-3,4-dihydroquinazolin-2-yl)phenoxy)-N-(4-nitrophenyl)acetamide]

system: not given; experiment: not given; details: not given

Row | melting point [°C] | SMILES
4 | 192 to 194 | COc1cc(-c2nc3ccccc3c(=O)[nH]2)ccc1OCC(=O)Nc1ccccc1 [Compound 7a, 2-(2-methoxy-4-(4-oxo-3,4-dihydroquinazolin-2-yl)phenoxy)-N-phenylacetamide]
5 | 222 to 225 | COc1cc(-c2nc3ccccc3c(=O)[nH]2)ccc1OCC(=O)Nc1ccccc1F [Compound 7b, N-(2-fluorophenyl)-2-(2-methoxy-4-(4-oxo-3,4-dihydroquinazolin-2-yl)phenoxy)acetamide]
6 | 216 to 218 | COc1cc(-c2nc3ccccc3c(=O)[nH]2)ccc1OCC(=O)Nc1ccc(F)cc1 [Compound 7c, N-(4-fluorophenyl)-2-(2-methoxy-4-(4-oxo-3,4-dihydroquinazolin-2-yl)phenoxy)acetamide]
7 | 207 to 209 | COc1cc(-c2nc3ccccc3c(=O)[nH]2)ccc1OCC(=O)Nc1ccccc1Cl [Compound 7d, N-(2-chlorophenyl)-2-(2-methoxy-4-(4-oxo-3,4-dihydroquinazolin-2-yl)phenoxy)acetamide]
8 | 203 to 205 | COc1cc(-c2nc3ccccc3c(=O)[nH]2)ccc1OCC(=O)Nc1cccc(Cl)c1 [Compound 7e, N-(3-chlorophenyl)-2-(2-methoxy-4-(4-oxo-3,4-dihydroquinazolin-2-yl)phenoxy)acetamide]
9 | 211 to 213 | COc1cc(-c2nc3ccccc3c(=O)[nH]2)ccc1OCC(=O)Nc1ccc(Cl)cc1 [Compound 7f, N-(4-chlorophenyl)-2-(2-methoxy-4-(4-oxo-3,4-dihydroquinazolin-2-yl)phenoxy)acetamide]
10 | 203 to 205 | COc1cc(-c2nc3ccccc3c(=O)[nH]2)ccc1OCC(=O)Nc1ccc(Br)cc1 [Compound 7g, N-(4-bromophenyl)-2-(2-methoxy-4-(4-oxo-3,4-dihydroquinazolin-2-yl)phenoxy)acetamide]
11 | 196 to 198 | COc1cc(-c2nc3ccccc3c(=O)[nH]2)ccc1OCC(=O)Nc1ccccc1C [Compound 7h, 2-(2-methoxy-4-(4-oxo-3,4-dihydroquinazolin-2-yl)phenoxy)-N-(o-tolyl)acetamide]
12 | 199 to 201 | COc1cc(-c2nc3ccccc3c(=O)[nH]2)ccc1OCC(=O)Nc1ccc(C)cc1 [Compound 7i, 2-(2-methoxy-4-(4-oxo-3,4-dihydroquinazolin-2-yl)phenoxy)-N-(p-tolyl)acetamide]
13 | 215 to 217 | COc1cc(-c2nc3ccccc3c(=O)[nH]2)ccc1OCC(=O)Nc1c(C)cccc1C [Compound 7j, N-(2,6-dimethylphenyl)-2-(2-methoxy-4-(4-oxo-3,4-dihydroquinazolin-2-yl)phenoxy)acetamide]
14 | 195 to 197 | CCc1ccc(NC(=O)COc2ccc(-c3nc4ccccc4c(=O)[nH]3)cc2OC)cc1 [Compound 7k, N-(4-ethylphenyl)-2-(2-methoxy-4-(4-oxo-3,4-dihydroquinazolin-2-yl)phenoxy)acetamide]
15 | 205 to 207 | COc1ccc(NC(=O)COc2ccc(-c3nc4ccccc4c(=O)[nH]3)cc2OC)cc1 [Compound 7l, 2-(2-methoxy-4-(4-oxo-3,4-dihydroquinazolin-2-yl)phenoxy)-N-(4-methoxyphenyl)acetamide]
16 | 217 to 219 | COc1cc(-c2nc3ccccc3c(=O)[nH]2)ccc1OCC(=O)Nc1ccc2ccccc2c1 [Compound 7o, 2-(2-methoxy-4-(4-oxo-3,4-dihydroquinazolin-2-yl)phenoxy)-N-(naphthalen-2-yl)acetamide]
17 | 191 to 193 | COc1cc(-c2nc3ccccc3c(=O)[nH]2)ccc1OCC(=O)NCc1ccc(C)cc1 [Compound 7p, 2-(2-methoxy-4-(4-oxo-3,4-dihydroquinazolin-2-yl)phenoxy)-N-(4-methylbenzyl)acetamide]
18 | 224 to 226 | COc1cc(-c2nc3ccccc3c(=O)[nH]2)ccc1OCC(=O)NCc1ccc(F)cc1 [Compound 7q, N-(4-fluorobenzyl)-2-(2-methoxy-4-(4-oxo-3,4-dihydroquinazolin-2-yl)phenoxy)acetamide]
19 | 194 to 196 | COc1cc(-c2nc3ccccc3c(=O)[nH]2)ccc1OCC(=O)NCc1ccccc1 [Compound 7r, N-benzyl-2-(2-methoxy-4-(4-oxo-3,4-dihydroquinazolin-2-yl)phenoxy)acetamide]

molecular target: T1, α-glucosidase; experiment: Enzyme kinetic studies (Lineweaver–Burk plot, secondary plot); type: biochemical; details: Km increased, Vmax unchanged
Procedure: A Lineweaver–Burk plot was generated to identify the type of inhibition and the Michaelis–Menten constant (Km) value was determined from the plot between the reciprocal of the substrate concentration (1/[S]) and reciprocal of enzyme rate (1/V) over various inhibitor concentrations. The experimental inhibitor constant (Ki) value was constructed by secondary plots of the inhibitor concentration [I] versus Km.

Row | SMILES | type of inhibition
20 | COc1cc(-c2nc3ccccc3c(=O)[nH]2)ccc1OCC(=O)Nc1ccccc1F [Compound 7b, N-(2-fluorophenyl)-2-(2-methoxy-4-(4-oxo-3,4-dihydroquinazolin-2-yl)phenoxy)acetamide] | competitive type; also recorded: competitive inhibition; also recorded: competitive inhibitor

system: α-amylase; experiment: not given; design: method as in doi:10.1016/j.molstruc.2022.133650; details: at 108 μM; cited from earlier work

Row | SMILES | % inhibition against α-amylase [%]
21 | COc1cc(-c2nc3ccccc3[nH]2)ccc1OCC(=O)Nc1ccc(F)cc1 [F] | 45.0 ± 0.8

molecular target: T1, α-glucosidase; experiment: not given; details: cited from earlier work

Row | SMILES | type of inhibition
22 | O=C(Cn1cc(COc2ccc(-c3nc4ccccc4c(=O)[nH]3)cc2)nn1)Nc1ccccc1 [C] | competitive

system: breast cancer cell line MCF-7; experiment: not given; design: method as in PMID 30366316; details: cited from earlier work

Row | SMILES | toxicity against breast cancer cell line MCF-7
23 | O=c1c2ccccc2nc(SCc2cn(Cc3ccc(Br)cc3)nn2)n1CCc1ccccc1 [B] | no toxicity
